Measured values published in article PMC8162404, “Proteomimetic surface fragments distinguish targets by function” (Chemical Science, 2020).

What was measured:
CaM [1] = target: T1, CaM (Bos taurus, UniProt P62157); test: Pull-down assay with immobilized protein and LSM libraries; type: binding, bovine; conditions: H14 library; 1:2 stoichiometry assumed; read-out: Surface mapping KD (apparent)
T1 construct: made in house; host or cells: E. coli BL21 (DE3)
How it was run: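 His-tagged protein immobilized on Co-NTA resin, equilibrated 30 min at room temperature with LSM sublibraries (64 members, […]), equimolar protein to total probe. CaM buffer: 20 mM HEPES pH 7.4, 150 mM NaCl, 5 mM CaCl2. Bound fractions from HPLC-MS loss of unbound probe versus protein-free resin control; Kd derived.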

Gal-1 [2] = target: T2, Gal-1 (Homo sapiens, UniProt P09382); test: as above; type: binding; conditions: H14 library; 1:1 binding assumed; read-out: Surface mapping KD (apparent)
T2 construct: made in house; host or cells: E. coli BL21(DE3)
T2 sequence (P09382 whole entry): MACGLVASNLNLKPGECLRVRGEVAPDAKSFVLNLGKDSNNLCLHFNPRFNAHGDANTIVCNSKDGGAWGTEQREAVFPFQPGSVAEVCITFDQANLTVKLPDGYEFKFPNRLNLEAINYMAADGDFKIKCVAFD
How it was run: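 His-tagged protein immobilized on Co-NTA resin (64 µM) in 20 mM HEPES pH 7.4, 150 mM NaCl, equilibrated 30 min at room temperature with foldamer LSM sublibraries at equimolar total concentration. Unbound fractions quantified by HPLC-MS versus protein-free resin control; apparent KD assumes 1:1 binding.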

S100B = target: T3, S100B (Homo sapiens, UniProt P04271); test: as above; type: binding; conditions: H14 library; 1:1 binding assumed; read-out: Surface mapping KD (apparent)
T3 construct: made in house; host or cells: Escherichia coli BL21(DE3)
T3 sequence (P04271 1-92): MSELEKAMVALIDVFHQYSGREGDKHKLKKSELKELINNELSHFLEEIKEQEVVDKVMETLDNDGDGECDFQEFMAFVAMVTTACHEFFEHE
How it was run: (§1)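 Buffers were HEPES pH 7.4 with 150 mM NaCl, plus 1 mM TCEP and 1 mM CaCl2 (50 mM HEPES) for S100A4 and S100B, 1 mM TCEP for Gal-1, and no additive for RecQ-WH. Immobilized protein at 64 µM was equilibrated 30 min with the LSM sublibrary, and unbound probes were measured by LC-MS.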

CaM [3] = target: T1, CaM; test: Competition pull-down with native ligand TRPV1-Ct15; type: binding, bovine; conditions: H14 library; competitor peptide 200 µM; read-out: Surface mapping KD (apparent), competition
Gal-1 [4] = target: T2, Gal-1; test: Competition pull-down with lactose; type: binding; conditions: H14 library; lactose 10 mM; read-out: Surface mapping KD (apparent), competition
How it was run: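 His6-tagged proteins immobilized on Co-NTA resin at 64 µM final with 64-member LSM foldamer sublibraries (1 M each, as printed) in pH 7.4 HEPES/NaCl buffers (Ca2+/TCEP per target), 30 min RT; competitor peptides 200 µM final, lactose 10 mM for Gal-1. Bound fractions from LC-MS loss vs protein-free resin; KD assuming 1:1 binding.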

S100A4 = target: T4, S100A4 (Homo sapiens, UniProt P26447); test: Pull-down assay with immobilized protein and LSM libraries; type: binding; conditions: H14 library; 1:1 binding assumed; read-out: Surface mapping KD (apparent)
T4 construct: made in house; host or cells: Escherichia coli BL21(DE3)
T4 sequence (P26447 whole entry): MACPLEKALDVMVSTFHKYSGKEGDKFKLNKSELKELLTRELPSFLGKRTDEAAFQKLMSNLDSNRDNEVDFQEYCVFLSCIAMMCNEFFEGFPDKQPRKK
How it was run: as §1

SMILES | Kd (CaM [1]) [µM] | Kd (Gal-1 [2]) [µM] | Kd (S100B) [µM] | Kd (CaM [3]) [µM] | Kd (Gal-1 [4]) [µM] | Kd (S100A4) [µM]
NC(=O)C[C@@H](CC(=O)N[C@H]1CCCC[C@@H]1C(=O)N[C@H]1CCCC[C@@H]1C(=O)N[C@H](CC(=O)N[C@H]1CCCC[C@@H]1C(N)=O)Cc1ccccc1)NC(=O)[C@H]1CCCC[C@@H]1N [H14 NF] | 45 | 264 | 123 | 339 | 250 | 
CC[C@H](C)[C@@H](CC(=O)N[C@H]1CCCC[C@@H]1C(N)=O)NC(=O)[C@H]1CCCC[C@@H]1NC(=O)[C@H]1CCCC[C@@H]1NC(=O)C[C@H](CC(N)=O)NC(=O)[C@H]1CCCC[C@@H]1N [H14 NI] | 80 | 258 |  | 283 | 323 | 472
NCCCC[C@@H](CC(=O)N[C@H]1CCCC[C@@H]1C(N)=O)NC(=O)[C@H]1CCCC[C@@H]1NC(=O)[C@H]1CCCC[C@@H]1NC(=O)C[C@H](CC(N)=O)NC(=O)[C@H]1CCCC[C@@H]1N [H14 NK] | 82 |  | 270 | 254 | 342 | 
CC(C)C[C@@H](CC(=O)N[C@H]1CCCC[C@@H]1C(N)=O)NC(=O)[C@H]1CCCC[C@@H]1NC(=O)[C@H]1CCCC[C@@H]1NC(=O)C[C@H](CC(N)=O)NC(=O)[C@H]1CCCC[C@@H]1N [H14 NL] | 76 | 259 |  | 345 | 338 | 472
N=C(N)NCCC[C@@H](CC(=O)N[C@H]1CCCC[C@@H]1C(N)=O)NC(=O)[C@H]1CCCC[C@@H]1NC(=O)[C@H]1CCCC[C@@H]1NC(=O)C[C@H](CC(N)=O)NC(=O)[C@H]1CCCC[C@@H]1N [H14 NR] | 58 | 114 | 128 | 434 | 247 | 
CC(C)[C@@H](CC(=O)N[C@H]1CCCC[C@@H]1C(N)=O)NC(=O)[C@H]1CCCC[C@@H]1NC(=O)[C@H]1CCCC[C@@H]1NC(=O)C[C@H](CC(N)=O)NC(=O)[C@H]1CCCC[C@@H]1N [H14 NV] | 115 | 349 |  | 261 | 378 | 395
NC(=O)C[C@@H](CC(=O)N[C@H]1CCCC[C@@H]1C(=O)N[C@H]1CCCC[C@@H]1C(=O)N[C@H](CC(=O)N[C@H]1CCCC[C@@H]1C(N)=O)Cc1c[nH]c2ccccc12)NC(=O)[C@H]1CCCC[C@@H]1N [H14 NW] | 38 | 169 | 98 | 269 | 185 | 
CC[C@H](C)[C@@H](CC(=O)N[C@H]1CCCC[C@@H]1C(N)=O)NC(=O)[C@H]1CCCC[C@@H]1NC(=O)[C@H]1CCCC[C@@H]1NC(=O)C[C@H](CCC(N)=O)NC(=O)[C@H]1CCCC[C@@H]1N [H14 QI] | 82 | 456 |  | 241 | 486 | 256
NCCCC[C@@H](CC(=O)N[C@H]1CCCC[C@@H]1C(N)=O)NC(=O)[C@H]1CCCC[C@@H]1NC(=O)[C@H]1CCCC[C@@H]1NC(=O)C[C@H](CCC(N)=O)NC(=O)[C@H]1CCCC[C@@H]1N [H14 QK] | 96 | 158 | 81 | 208 | 146 | 382
CC(C)C[C@@H](CC(=O)N[C@H]1CCCC[C@@H]1C(N)=O)NC(=O)[C@H]1CCCC[C@@H]1NC(=O)[C@H]1CCCC[C@@H]1NC(=O)C[C@H](CCC(N)=O)NC(=O)[C@H]1CCCC[C@@H]1N [H14 QL] | 87 | 457 |  | 241 | 458 | 256
CSCC[C@@H](CC(=O)N[C@H]1CCCC[C@@H]1C(N)=O)NC(=O)[C@H]1CCCC[C@@H]1NC(=O)[C@H]1CCCC[C@@H]1NC(=O)C[C@H](CCC(N)=O)NC(=O)[C@H]1CCCC[C@@H]1N [H14 QM] | 51 | 364 |  | 317 | 406 | 448
N=C(N)NCCC[C@@H](CC(=O)N[C@H]1CCCC[C@@H]1C(N)=O)NC(=O)[C@H]1CCCC[C@@H]1NC(=O)[C@H]1CCCC[C@@H]1NC(=O)C[C@H](CCC(N)=O)NC(=O)[C@H]1CCCC[C@@H]1N [H14 QR] | 43 | 71 | 107 | 291 | 272 | 344
CC(C)[C@@H](CC(=O)N[C@H]1CCCC[C@@H]1C(N)=O)NC(=O)[C@H]1CCCC[C@@H]1NC(=O)[C@H]1CCCC[C@@H]1NC(=O)C[C@H](CCCNC(=N)N)NC(=O)[C@H]1CCCC[C@@H]1N [H14 RV] | 26 |  | 63 | 219 | 418 | 72
CSCC[C@@H](CC(=O)N[C@H]1CCCC[C@@H]1C(N)=O)NC(=O)[C@H]1CCCC[C@@H]1NC(=O)[C@H]1CCCC[C@@H]1NC(=O)C[C@H](CO)NC(=O)[C@H]1CCCC[C@@H]1N [H14 SM] | 43 | 356 |  | 210 | 352 | 26
C[C@@H](O)[C@@H](CC(=O)N[C@H]1CCCC[C@@H]1C(N)=O)NC(=O)[C@H]1CCCC[C@@H]1NC(=O)[C@H]1CCCC[C@@H]1NC(=O)C[C@H](CO)NC(=O)[C@H]1CCCC[C@@H]1N [H14 ST] | 215 |  |  | 307 | 413 | 323
CC(C)[C@@H](CC(=O)N[C@H]1CCCC[C@@H]1C(N)=O)NC(=O)[C@H]1CCCC[C@@H]1NC(=O)[C@H]1CCCC[C@@H]1NC(=O)C[C@H](CO)NC(=O)[C@H]1CCCC[C@@H]1N [H14 SV] | 101 | 221 |  | 398 | 476 | 34
C[C@@H](CC(=O)N[C@H]1CCCC[C@@H]1C(N)=O)NC(=O)[C@H]1CCCC[C@@H]1NC(=O)[C@H]1CCCC[C@@H]1NC(=O)C[C@@H](NC(=O)[C@H]1CCCC[C@@H]1N)[C@@H](C)O [H14 TA] | 244 | 425 |  | 398 | 426 | 338
C[C@@H](O)[C@@H](CC(=O)N[C@H]1CCCC[C@@H]1C(=O)N[C@H]1CCCC[C@@H]1C(=O)N[C@@H](CCC(=O)O)CC(=O)N[C@H]1CCCC[C@@H]1C(N)=O)NC(=O)[C@H]1CCCC[C@@H]1N [H14 TE] | 285 | 244 |  | 281 | 366 | 
C[C@@H](O)[C@@H](CC(=O)N[C@H]1CCCC[C@@H]1C(=O)N[C@H]1CCCC[C@@H]1C(=O)N[C@@H](CO)CC(=O)N[C@H]1CCCC[C@@H]1C(N)=O)NC(=O)[C@H]1CCCC[C@@H]1N [H14 TS] | 71 | 408 |  | 487 | 390 | 
C[C@@H](O)[C@@H](CC(=O)N[C@H]1CCCC[C@@H]1C(N)=O)NC(=O)[C@H]1CCCC[C@@H]1NC(=O)[C@H]1CCCC[C@@H]1NC(=O)C[C@@H](NC(=O)[C@H]1CCCC[C@@H]1N)[C@@H](C)O [H14 TT] | 253 | 366 |  | 416 | 431 | 
CC(C)[C@@H](CC(=O)N[C@H]1CCCC[C@@H]1C(N)=O)NC(=O)[C@H]1CCCC[C@@H]1NC(=O)[C@H]1CCCC[C@@H]1NC(=O)C[C@@H](NC(=O)[C@H]1CCCC[C@@H]1N)[C@@H](C)O [H14 TV] | 113 | 399 |  | 376 | 424 | 
C[C@@H](O)[C@@H](CC(=O)N[C@H]1CCCC[C@@H]1C(=O)N[C@H]1CCCC[C@@H]1C(=O)N[C@H](CC(=O)N[C@H]1CCCC[C@@H]1C(N)=O)Cc1ccc(O)cc1)NC(=O)[C@H]1CCCC[C@@H]1N [H14 TY] | 84 | 297 | 180 | 226 | 338 | 
